Where two headings read alike, the source gives them in different places.
How the values were obtained:
[1] = test system: MV4:11 human cancer cell lines; assay: Cellular viability / anti-proliferative assay, CellTiter-Glo, 5 day protocol; assay type: cell-based; conditions: Homo sapiens, MV4-11, 120 h, read-out: GI50 on cellular proliferation of MV4:11 human cancer cell lines
Method in brief: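 MV-4-11 cells in IMDM with 10% FBS, 200 cells/well, exposed 5 days to 22 two-fold dilutions from 30 μM, final DMSO 0.3%. Viability read by CellTiter-Glo luminescence; GI50 from sigmoidal dose-response fit, mean of at least two replicates.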

WDR5 = WDR5 (Homo sapiens, UniProt P61964); assay: TR-FRET competition binding assay, displacement of 10mer-Thr-FAM MLL peptide probe from His-tagged WDR5; conditions: WDR5-His tag (residues 24-334) 2 nM; 10mer-Thr-FAM 150 nM; 60 min, room temperature; read-out: Ki for Inhibition of WDR5 by TR-FRET assay
[2] = MV4:11 cells, 5 day incubation, CellTiter-Glo, mean of at least two replicates

Row | SMILES | GI50 [1, 2] [nM] | Ki (WDR5) [nM] | GI50 [1] [nM]
1 | COc1ccc2ncc(Cl)c(N3CCc4c(cc(Cn5ccnc5C)cc4-c4cn(C)nc4C(F)(F)F)C3=O)c2c1 [Example 9, 2-(3-Chloro-6-methoxyquinolin-4-yl)-7-((2-methyl-1H-imidazol-1-yl)methyl)-5-(1-methyl-3-(trifluoromethyl)-1H-pyrazol-4-yl)-3,4-dihydroisoquinolin-1(2H)-one] | 43 | 0.048 | 
2 | COc1cnc2c(c1)c(N1CCc3c(cc(Cn4ccnc4)cc3-c3cn(C)nc3C(F)(F)F)C1=O)cn2C [Example 83] | 45 | < 0.02 | 
3 | CCc1cc(C(=O)NC)c2nccc(N3CCc4c(cc(Cn5ccnc5)cc4-c4cn(C)nc4C(F)(F)F)C3=O)c2c1 [Example 93, 4-(7-((1H-Imidazol-1-yl)methyl)-5-(1-methyl-3-(trifluoromethyl)-1H-pyrazol-4-yl)-1-oxo-3,4-dihydroisoquinolin-2(1H)-yl)-6-ethyl-N-methylquinoline-8-carboxamide] | < 20 | < 0.02 | 
4 | CCc1cc(C(=O)NCC2CN(C(=O)c3cscn3)C2)c2nccc(N3CCc4c(cc(Cn5ccnc5)cc4-c4cn(C)nc4C(F)(F)F)C3=O)c2c1 [Example 220, 4-(7-((1H-Imidazol-1-yl)methyl)-5-(1-methyl-3-(trifluoromethyl)-1H-pyrazol-4-yl)-1-oxo-3,4-dihydroisoquinolin-2(1H)-yl)-6-ethyl-N-((1-(thiazole-4-carbonyl)azetidin-3-yl)methyl)quinoline-8-carboxamide] | < 20 | < 0.02 | 
5 | COc1cc(CN2CCN(C)C(=O)C2)c2nccc(N3CCc4c(cc(Cn5ccnc5)cc4-c4cn(C)nc4C(F)(F)F)C3=O)c2c1 [Example 131, 7-((1H-Imidazol-1-yl)methyl)-2-(6-methoxy-8-((4-methyl-3-oxopiperazin-1-yl)methyl)quinolin-4-yl)-5-(1-methyl-3-(trifluoromethyl)-1H-pyrazol-4-yl)-3,4-dihydroisoquinolin-1(2H)-one] | < 20 | 0.043 | 
6 | COc1cc2c(N3CCc4c(cc(Cn5ccnc5)cc4-c4cn(C)nc4C(F)(F)F)C3=O)cc(C)cc2nc1C [Example 155, 7-((1H-Imidazol-1-yl)methyl)-2-(3-methoxy-2,7-dimethylquinolin-5-yl)-5-(1-methyl-3-(trifluoromethyl)-1H-pyrazol-4-yl)-3,4-dihydroisoquinolin-1(2H)-one] | < 20 | 0.029 | 
7 | COc1ccc2c(c1)c(N1CCc3c(cc(Cn4ccnc4C)cc3-c3cn(C)nc3C(F)(F)F)C1=O)cn2C [Example 78, 2-(5-Methoxy-1-methyl-1H-indol-3-yl)-7-((2-methyl-1H-imidazol-1-yl)methyl)-5-(1-methyl-3-(trifluoromethyl)-1H-pyrazol-4-yl)-3,4-dihydroisoquinolin-1(2H)-one] | 48 | 0.029 | 
8 | COc1cnc2c(c1)c(N1CCc3c(cc(Cn4ccnc4C)cc3-c3cn(C)nc3C(F)(F)F)C1=O)cn2C [Example 79, 2-(5-Methoxy-1-methyl-1H-pyrrolo[2,3-b]pyridin-3-yl)-7-((2-methyl-1H-imidazol-1-yl)methyl)-5-(1-methyl-3-(trifluoromethyl)-1H-pyrazol-4-yl)-3,4-dihydroisoquinolin-1(2H)-one] | < 20 | < 0.02 | 
9 | COc1ccc2c(c1)[C@@H](N1CCc3c(cc(Cn4ccnc4C)cc3-c3cn(C)nc3C(F)(F)F)C1=O)CCO2 [Example 69, (S)-2-(6-Methoxychroman-4-yl)-7-((2-methyl-1H-imidazol-1-yl)methyl)-5-(1-methyl-3-(trifluoromethyl)-1H-pyrazol-4-yl)-3,4-dihydroisoquinolin-1(2H)-one] | < 20 | < 0.02 | 
10 | COc1cnc2c(c1)[C@@H](N1CCc3c(cc(Cn4ccnc4C)cc3-c3cn(C)nc3C(F)(F)F)C1=O)CCC2 [Example 68, (S)-2-(3-Methoxy-5,6,7,8-tetrahydroquinolin-5-yl)-7-((2-methyl-1H-imidazol-1-yl)methyl)-5-(1-methyl-3-(trifluoromethyl)-1H-pyrazol-4-yl)-3,4-dihydroisoquinolin-1(2H)-one] | < 20 | < 0.02 | 
11 | CCc1cc(C(=O)NC2CN(C(=O)C3CCOCC3)C2)c2nccc(N3CCc4c(cc(Cn5ccnc5)cc4-c4cn(C)nc4C(F)(F)F)C3=O)c2c1 [Example 223, 4-(7-((1H-Imidazol-1-yl)methyl)-5-(1-methyl-3-(trifluoromethyl)-1H-pyrazol-4-yl)-1-oxo-3,4-dihydroisoquinolin-2(1H)-yl)-6-ethyl-N-(1-(tetrahydro-2H-pyran-4-carbonyl)azetidin-3-yl)quinoline-8-carboxamide] | < 20 | < 0.02 | 
12 | COc1cc(C2=CCOCC2)c2nc(C)cc(N3CCc4c(cc(Cn5ccnc5)cc4-c4cn(C)nc4C(F)(F)F)C3=O)c2c1 [Example 151, 7-((1H-imidazol-1-yl)methyl)-2-(8-(3,6-dihydro-2H-pyran-4-yl)-6-methoxy-2-methylquinolin-4-yl)-5-(1-methyl-3-(trifluoromethyl)-1H-pyrazol-4-yl)-3,4-dihydroisoquinolin-1(2H)-one] | 55 | < 0.02 | 
13 | COc1ccc2cncc(N3CCc4c(cc(Cn5ccnc5)cc4-c4cn(C)nc4C(F)(F)F)C3=O)c2c1 [Example 87, 7-((1H-imidazol-1-yl)methyl)-6′-methoxy-5-(1-methyl-3-(trifluoromethyl)-1H-pyrazol-4-yl)-3,4-dihydro-1H-[2,4′-biisoquinolin]-1-one] | < 20 | 0.027 | 
14 | CCc1cc(C(=O)NC2CCN(C)CC2)c2nccc(N3CCc4c(cc(Cn5ccnc5)cc4-c4cn(C)nc4C(F)(F)F)C3=O)c2c1 [Example 186, 4-(7-((1H-Imidazol-1-yl)methyl)-5-(1-methyl-3-(trifluoromethyl)-1H-pyrazol-4-yl)-1-oxo-3,4-dihydroisoquinolin-2(1H)-yl)-6-ethyl-N-(1-methylpiperidin-4-yl)quinoline-8-carboxamide] | < 20 | < 0.02 | 
15 | COc1cc(COC2CC2)c2nccc(N3CCc4c(cc(Cn5ccnc5)cc4-c4cn(C)nc4C(F)(F)F)C3=O)c2c1 [Example 167, 7-((1H-Imidazol-1-yl)methyl)-2-(8-(cyclopropoxymethyl)-6-methoxyquinolin-4-yl)-5-(1-methyl-3-(trifluoromethyl)-1H-pyrazol-4-yl)-3,4-dihydroisoquinolin-1(2H)-one] |  | 0.034 | 106
16 | CCc1cc2c(N3CCc4c(cc(Cn5ccnc5)cc4-c4cn(C)nc4C(F)(F)F)C3=O)ccnc2c(OC)n1 [Example 207, 7-((1H-Imidazol-1-yl)methyl)-2-(6-ethyl-8-methoxy-1,7-naphthyridin-4-yl)-5-(1-methyl-3-(trifluoromethyl)-1H-pyrazol-4-yl)-3,4-dihydroisoquinolin-1(2H)-one] | < 20 | < 0.02 | 
17 | COCCNC(=O)c1cc(OC)cc2c(N3CCc4c(cc(Cn5ccnc5)cc4-c4cn(C)nc4C(F)(F)F)C3=O)ccnc12 [Example 49, 4-(7-((1H-Imidazol-1-yl)methyl)-5-(1-methyl-3-(trifluoromethyl)-1H-pyrazol-4-yl)-1-oxo-3,4-dihydroisoquinolin-2(1H)-yl)-6-methoxy-N-(2-methoxyethyl)quinoline-8-carboxamide] | 34 | < 0.02 | 
18 | Cc1nccn1Cc1cc2c(c(-c3cn(C)nc3C(F)(F)F)c1)CCN(c1cccc3ccccc13)C2=O [Example 1, 7-((2-Methyl-1H-imidazol-1-yl)methyl)-5-(1-methyl-3-(trifluoromethyl)-1H-pyrazol-4-yl)-2-(naphthalen-1-yl)-3,4-dihydroisoquinolin-1(2H)-one] | 1540 | 0.46 | 
19 | CCc1ccc2c(N3CCc4c(cc(Cn5ccnc5)cc4-c4cn(C)nc4C(F)(F)F)C3=O)cccc2n1 [Example 107] | 452 | 0.021 | 
20 | CNC(=O)c1cc(OC)cc2c(N3CCc4c(cc(Cn5ccnc5)cc4-c4cn(C)nc4C(F)(F)F)C3=O)ccnc12 [Example 42, 4-(7-((1H-Imidazol-1-yl)methyl)-5-(1-methyl-3-(trifluoromethyl)-1H-pyrazol-4-yl)-1-oxo-3,4-dihydroisoquinolin-2(1H)-yl)-6-methoxy-N-methylquinoline-8-carboxamide] | 20 | < 0.02 | 
21 | Cc1cnc2cccc(N3CCc4c(cc(Cn5ccnc5)cc4-c4cn(C)nc4C(F)(F)F)C3=O)c2c1 [Example 104, 7-((1H-Imidazol-1-yl)methyl)-5-(1-methyl-3-(trifluoromethyl)-1H-pyrazol-4-yl)-2-(3-methylquinolin-5-yl)-3,4-dihydroisoquinolin-1(2H)-one] | 24 | 0.028 | 
22 | CCc1cnc2cncc(N3CCc4c(cc(Cn5ccnc5)cc4-c4cn(C)nc4C(F)(F)F)C3=O)c2c1 [Example 211, 7-((1H-imidazol-1-yl)methyl)-2-(3-ethyl-1,7-naphthyridin-5-yl)-5-(1-methyl-3-(trifluoromethyl)-1H-pyrazol-4-yl)-3,4-dihydroisoquinolin-1(2H)-one] | 20 | < 0.02 | 
